Results taken from patent publication US9133158B2, “Bicyclic dihydroisoquinoline-1-one derivatives” (Hoffmann-La Roche Inc., priority 2011, dated 2015).

Legend:
human CYP11B2 = target: T1, human CYP11B2 (Homo sapiens, UniProt P19099); experiment: G-402 cellular enzyme assay, human CYP11B2 (aldosterone release, HTRF); type: cell-based; details: G-402 cells, 1 μM Deoxycorticosterone
T1 construct: expressed in transfected cells
T1 sequence (P19099 25-503): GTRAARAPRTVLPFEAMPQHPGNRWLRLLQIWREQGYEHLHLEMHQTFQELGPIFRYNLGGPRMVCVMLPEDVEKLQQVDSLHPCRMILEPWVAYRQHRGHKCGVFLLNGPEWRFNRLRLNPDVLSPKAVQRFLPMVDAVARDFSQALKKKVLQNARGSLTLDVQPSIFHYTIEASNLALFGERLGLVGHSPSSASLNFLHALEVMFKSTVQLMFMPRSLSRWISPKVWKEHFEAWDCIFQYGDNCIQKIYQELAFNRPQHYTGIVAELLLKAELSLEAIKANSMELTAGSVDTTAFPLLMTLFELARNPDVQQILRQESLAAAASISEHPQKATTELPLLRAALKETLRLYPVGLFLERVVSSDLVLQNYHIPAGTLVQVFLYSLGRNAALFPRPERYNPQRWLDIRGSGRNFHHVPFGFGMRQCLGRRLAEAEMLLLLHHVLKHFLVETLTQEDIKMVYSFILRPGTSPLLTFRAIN
Summary of the method: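 Inhibition of steroid release was taken as enzyme inhibition. CYP11B1 assays used 1 μM deoxycortisol with cortisol detection, CYP11B2 assays 1 μM deoxycorticosterone with aldosterone detection, both by HTRF after 16 h in stable G-402 cells; EC50 from least-squares MMF fit.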

human CYP11B1 = target: T2, human CYP11B1 (Homo sapiens, UniProt P15538); experiment: G-402 cellular enzyme assay, human CYP11B1 (cortisol release, HTRF); type: cell-based; details: G-402 cells, 1 μM Deoxycortisol
T2 construct: expressed in transfected cells
T2 sequence (P15538 25-503): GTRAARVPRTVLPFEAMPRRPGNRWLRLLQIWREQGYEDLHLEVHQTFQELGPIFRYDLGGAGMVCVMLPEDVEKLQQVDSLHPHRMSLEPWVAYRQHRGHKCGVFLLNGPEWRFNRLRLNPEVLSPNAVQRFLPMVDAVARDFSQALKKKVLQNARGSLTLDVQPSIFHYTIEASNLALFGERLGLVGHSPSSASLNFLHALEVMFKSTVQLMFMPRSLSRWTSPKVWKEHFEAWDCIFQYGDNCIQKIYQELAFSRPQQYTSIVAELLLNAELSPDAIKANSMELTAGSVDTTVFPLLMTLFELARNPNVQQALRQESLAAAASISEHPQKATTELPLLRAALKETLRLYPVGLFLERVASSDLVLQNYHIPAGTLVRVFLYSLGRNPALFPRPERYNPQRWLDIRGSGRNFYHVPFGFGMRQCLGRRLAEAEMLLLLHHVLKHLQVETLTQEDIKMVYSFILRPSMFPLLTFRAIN
Description: Herein we identified the use of the G-402 cell line as a host cell to ectopically express (transiently or stably) enzymes of the CYP11 family. Specifically we developed stable G-402 cells expressing ectopically human CYP11B1, human CYP11B2, human CYP11A1, cynmolgus CYP11B1 or cynomolgus CYP11B2 enzyme activity. Importantly the identified cell line G-402 expresses co-factors (adrenodoxin and adrenodoxin reductase) important for the activity of the CYP11 family and no relevant enzyme activity of the CYP11 family (in comparison to H295R cells) was detected in these cells. Therefore the G-402 cell line is uniquely suited as a host cell for the ectopic expression of enzymes from the CYP11 family.
G-402 cells can be obtained from ATCC(CRL-1440) and were originally derived from a renal leiomyoblastoma.
The expression plasmids contain the ORF for either human/cyno CYP11B1 or CYP11B2 under the control of a suitable promoter (CMV-promoter) and a suitable resistance marker (neomycin). Using standard techniques the expression plasmid is transfected into G-402 cells and these cells are then selected for expressing the given resistance markers. Individual cell-clones are then selected and assessed for displaying the desired enzymatic activity using 11-Deoxycorticosterone (Cyp11B2) or 11-Deoxycortisol (Cyp11B1) as a substrate.
G-402 cells expressing CYP11 constructs were established as described above and maintained in McCoy's 5a Medium Modified, ATCC Catalog No. 30-2007 containing 10% FCS and 400 μg/ml G418 (Geneticin) at 37° C. under an atmosphere of 5% CO2/95% air.
Cellular enzyme assays were performed in DMEM/F12 medium containing 2.5% charcoal treated FCS and appropriate concentration of substrate (0.3-10 uM 11-Deoxycorticosterone, 11-Deoxycortisol or Corticosterone). For assaying enzymatic activity, cells were plated onto 96 well plates and incubated for 16 h. An aliquot of the supernatant is then transferred and analyzed for the concentration of the expected product (Aldosterone for CYP11B2; Cortisol for CYP11B1). The concentrations of these steroids can be determined using HTRF assays from CisBio analyzing either Aldosterone or Cortisol.
Inhibition of the release of produced steroids can be used as a measure of the respective enzyme inhibition by test compounds added during the cellular enzyme assay. The dose dependent inhibition of enzymatic activity by a compound is calculated by means of plotting added inhibitor concentrations (x-axes) vs. measured steroid/product level (y-axes). The inhibition is then calculated by fitting the following 4-parameter sigmoidal function (Morgan-Mercer-Flodin (MMF) model) to the raw data points using the least squares method:
[formula] wherein, A is the maximum y value, B is the EC50 factor determined using XLFit, C is the minimum y value and D is the slope value.
EC50 values for compounds claimed herein were tested with the G402-based assay system described. Cyp11B2 enzyme activity was tested in presence of 1 μM Deoxycorticosterone and variable amounts of inhibitors; Cyp11B1 enzyme activity was tested in presence of 1 μM Deoxycortisol and variable amounts of inhibitors.

Row | Structure (SMILES) | EC50 (human CYP11B2) [nM] | EC50 (human CYP11B1) [nM]
1 | CCC(=O)N[C@@H]1CCCc2c1cncc2N1C(=O)c2ccc(Cl)cc2[C@H]1CC (single isomer, unassigned) [Example 354, N-[(R or S)-4-((R or S)-5-Chloro-3-ethyl-1-oxo-1,3-dihydro-isoindol-2-yl)-5,6,7,8-tetrahydro-isoquinolin-8-yl]-propionamide] | 12.2 | 345
2 | CC[C@@H]1c2cc(Cl)ccc2C(=O)N1c1cncc2c1CCC[C@@H]2NC(C)=O (single isomer, unassigned) [Example 355, N-[(S or R)-4-((R or S)-5-Chloro-3-ethyl-1-oxo-1,3-dihydro-isoindol-2-yl)-5,6,7,8-tetrahydro-isoquinolin-8-yl]-acetamide] | 15.3 | 8170
3 | CC[C@H]1c2cc(Cl)ccc2C(=O)N1c1cncc2c1CCC[C@@H]2NC(C)=O (single isomer, unassigned) [Example 356, N-[(S or R)-4-((S or R)-5-Chloro-3-ethyl-1-oxo-1,3-dihydro-isoindol-2-yl)-5,6,7,8-tetrahydro-isoquinolin-8-yl]-acctamide] | 2000 | 737
4 | CC[C@H]1c2cc(Cl)ccc2C(=O)N1c1cncc2c1CCC[C@H]2NC(C)=O (single isomer, unassigned) [Example 357, N-[(R or S)-4-((S or R)-5-Chloro-3-ethyl-1-oxo-1,3-dihydro-isoindol-2-yl)-5,6,7,8-tetrahydro-isoquinolin-8-yl]-acetamide] | 98.2 | 3220
5 | CC[C@@H]1c2cc(Cl)ccc2C(=O)N1c1cncc2c1CCC[C@H]2NC(C)=O (single isomer, unassigned) [Example 358, N-[(R or S)-4-((R or S)-5-Chloro-3-ethyl-1-oxo-1,3-dihydro-isoindol-2-yl)-5,6,7,8-tetrahydro-isoquinolin-8-yl]-acetamide] | 5 | 433
6 | CCC(=O)N[C@@H]1CCCc2c1cncc2N1C(=O)c2ccc(Cl)cc2[C@@H]1C (single isomer, unassigned) [Example 359, N-[(R or S)-4-((S or R)-5-Chloro-3-methyl-1-oxo-1,3-dihydro-isoindol-2-yl)-5,6,7,8-tetrahydro-isoquinolin-8-yl]-propionamide] | 6 | 411
7 | CCC(=O)N[C@H]1CCCc2c1cncc2N1C(=O)c2ccc(Cl)cc2[C@H]1C (single isomer, unassigned) [Example 360, N-[(S or R)-4-((R or S)-5-Chloro-3-methyl-1-oxo-1,3-dihydro-isoindol-2-yl)-5,6,7,8-tetrahydro-isoquinolin-8-yl]-propionamide] | 853 | 16100
8 | CCC(=O)N[C@@H]1CCCc2c1cncc2N1C(=O)c2ccc(Cl)cc2[C@H]1C (single isomer, unassigned) [Example 361, N-[(R or S)-4-((R or S)-5-Chloro-3-methyl-1-oxo-1,3-dihydro-isoindol-2-yl)-5,6,7,8-tetrahydro-isoquinolin-8-yl]-propionamide] | 65.6 | 9410
9 | CC(=O)N[C@H]1CCCc2c1cncc2N1C(=O)c2ccc(Cl)cc2[C@H]1C (single isomer, unassigned) [Example 363, N-[(S or R)-4-((R or S)-5-Chloro-3-methyl-1-oxo-1,3-dihydro-isoindol-2-yl)-5,6,7,8-tetrahydro-isoquinolin-8-yl]-acetamide] | 171 | 2330

More lines, in order of falling EC50 (human CYP11B2), values ahead:

Row | EC50 (human CYP11B2) [nM] | EC50 (human CYP11B1) [nM] | Structure (SMILES)
10 | 396 | 16200 | CCC(=O)N[C@@H]1CCCc2c1cncc2N1C(=O)c2ccc(Cl)cc2[C@@H]1CC (single isomer, unassigned) [Example 353, N-[(R or S)-4-((S or R)-5-Chloro-3-ethyl-1-oxo-1,3-dihydro-isoindol-2-yl)-5,6,7,8-tetrahydro-isoquinolin-8-yl]-propionamide]
11 | 337 | 15900 | CC(=O)N[C@H]1CCCc2c1cncc2N1C(=O)c2ccc(Cl)cc2[C@@H]1C (single isomer, unassigned) [Example 365, N-[(S or R)-4-((S or R)-5-Chloro-3-methyl-1-oxo-1,3-dihydro-isoindol-2-yl)-5,6,7,8-tetrahydro-isoquinolin-8-yl]-acetamide]
12 | 130 | 5570 | CC(=O)N[C@@H]1CCCc2c1cncc2N1C(=O)c2ccc(Cl)cc2[C@H]1C (single isomer, unassigned) [Example 364, N-[(R or S)-4-((R or S)-5-Chloro-3-methyl-1-oxo-1,3-dihydro-isoindol-2-yl)-5,6,7,8-tetrahydro-isoquinolin-8-yl]-acetamide]
13 | 96.5 | 39400 | CCC(=O)N[C@H]1CCCc2c1cncc2N1C(=O)c2ccc(Cl)cc2[C@H]1CC (single isomer, unassigned) [Example 352, N-[(S or R)-4-((R or S)-5-Chloro-3-ethyl-1-oxo-1,3-dihydro-isoindol-2-yl)-5,6,7,8-tetrahydro-isoquinolin-8-yl]-propionamide]
14 | 62.1 | 5240 | CC[C@@H]1c2cc(Cl)ccc2C(=O)N1c1cncc2c1CC[C@@H]2NS(C)(=O)=O (single isomer, unassigned) [Example 367, N-[(S or R)-4-((R or S)-5-Chloro-3-ethyl-1-oxo-1,3-dihydro-isoindol-2-yl)-6,7-dihydro-5H-[2]pyrindin-7-yl]-methanesulfonamide]
15 | 53.2 | 6090 | CCC(=O)N[C@H]1CCCc2c1cncc2N1C(=O)c2ccc(Cl)cc2[C@@H]1C (single isomer, unassigned) [Example 362, N-[(S or R)-4-((S or R)-5-Chloro-3-methyl-1-oxo-1,3-dihydro-isoindol-2-yl)-5,6,7,8-tetrahydro-isoquinolin-8-yl]-propionamide]
16 | 12.1 | 723 | CC[C@H]1c2cc(Cl)ccc2C(=O)N1c1cncc2c1CC[C@H]2NS(C)(=O)=O (single isomer, unassigned) [Example 368, N-[(R or S)-4-((S or R)-5-Chloro-3-ethyl-1-oxo-1,3-dihydro-isoindol-2-yl)-6,7-dihydro-5H-[2]pyrindin-7-yl]-methanesulfonamide]
17 | 4.4 | 82 | CC(=O)N[C@@H]1CCCc2c1cncc2N1C(=O)c2ccc(Cl)cc2[C@@H]1C (single isomer, unassigned) [Example 366, N-[(R or S)-4-((S or R)-5-Chloro-3-methyl-1-oxo-1,3-dihydro-isoindol-2-yl)-5,6,7,8-tetrahydro-isoquinolin-8-yl]-acetamide]
